The subject of one data set is SB1A cells. Nature of the data set: Flow cytometry with NBD-PZ and propidium iodide staining. Type of data set: cell-based, human. Conditions: 24 h. The method, then: FIG. 10. […] C, Live cells, sorted based on absence of propidium iodide staining (left panel, pentagonal gate) were analyzed for NBD-PZ staining, indicative of lysosomal content. […] Data in B,C presented as mean+/−SEM (n=3). *P<0.05, **P<0.001 by student's t-test.
Experiments aimed at elucidating the mechanism of action of Cymanquine were conducted. […] It is known that the blockade of autophagy results in the accumulation of neutralized lysosomes and of proteins normally cleared by autophagic flux.

Data set [1] deals with isolated lysosomes of cells. Nature of the data set: Quantitation of drug from isolated lysosomes by HPLC-MS/MS. Type of data set: cell-based. The following applies: preliminary, cells treated with equimolar quantities of either drug. The method, then: Experiments aimed at elucidating the mechanism of action of Cymanquine were conducted. […] It is known that the blockade of autophagy results in the accumulation of neutralized lysosomes and of proteins normally cleared by autophagic flux. FIG. 10 presents data that support a mechanism of action for Cymanquine as a weak base lysosomotropic autophagy inhibitor. […] The lysosomotropic fluorophore, NBD-PZ, was employed in conjunction with propidium iodide (PI) to simultaneously measure lysosomal accumulation, neutralization, and cell viability by flow cytometry on CQ and Cym treated SB1A cells (FIG. 10C-E). […] Furthermore, at the highest concentration of Cymanquine tested, NBD-PZ staining is reduced, due to either lysosome loss, or neutralization, as emission of this fluorophore is highly dependent upon pH. Preliminary quantitation of Cymanquine and CQ from isolated lysosomes of cells treated with equimolar quantities of either drug have been encouraging, showing a 60-fold higher accumulation of Cymanquine compared to CQ, as measured by HPLC-MS/MS.

A further data set deals with RWPE-1. Briefly: Cytotoxicity assay (MTS cell viability, 72 h) in normal prostate epithelial cells. Type of data set: cell-based, human. The following applies: normal pH. The method, then: (§1) Materials and Methods. Cell lines and reagents. Human cancer cell lines ACHN (kidney adenocarcinoma), BxPC3 (pancreatic adenocarcinoma), DU145 (prostate carcinoma), HT29 (colorectal adenocarcinoma), Jurkat (T-cell lymphoma), LNCaP (androgen sensitive prostate adenocarcinoma), PC3 (androgen insensitive prostate adenocarcinoma), SB1A (melanoma), and T47D (breast infiltrating ductal carcinoma) were cultured RPMI 1640 (Mediatech, Inc., Manassas, Va.) supplemented with 10% fetal bovine serum, 1% penicillin/streptomycin/amphotericin B solution, 1 mM sodium pyruvate, 1% MEM non-essential amino acid solution, and 2 mM L-glutamine at 37° C. in a 5% CO2, humidified incubator. All supplements were purchased from HyClone™ (Logan, Utah). […] The resulting pH was measured to be 6.72±0.06 in the absence of cells. […]
(§2) Cytotoxicity assay. […] Viability was measured by the CellTiter 96 AQueous Non-Radioactive Cell Proliferation Assay (Promega, Madison, Wis.) according to manufacturer's instruction. Briefly, 20 μL of MTS/PMS reagent was added to each tissue culture well, and incubated at 37° C. for a minimum of 2 hours, or until the maximum absorbance at 490 nm on the plate (wells with highest cell numbers) reached a value greater than 0.6. Absorbance was measured on a Perkin-Elmer Victor X4 multi-label plate reader. […]

Data set [2] concerns panel of human cancer cell lines. Briefly: Cytotoxicity assay (MTS cell viability, 72 h). The data set is classed as cell-based. The method, then:
as §1, §2

The test system of data set [3] is EGFP-LC3 fusion protein in SB1A cells. Nature of the data set: Fluorescence microscopy of EGFP-LC3 sub-cellular distribution. The data set is classed as cell-based, human. Conditions: SB1A stably expressing EGFP-LC3, 4 h. The method, then: (§3) FIG. 10. Evidence of lysosomal accumulation and cytotoxicity obtained through autophagy blockade by Cymanquine. A, SB1A cells were treated with various concentrations of Cymanquine or CQ for 24 h prior to western blotting for LC3 isoforms 1 and 2 (LC3-I and II—see text), respectively. […] B, SB1A cells stably expressing EGFP-LC3 were treated with indicated concentrations of CQ and Cymanquine for 4 h prior to fluorescence microscopy evaluation of EGFP-LC3 sub-cellular deposition. C-E, SB1A were treated with various concentrations of Cymanquine or CQ for 24 h prior to simultaneous staining with NBD-PZ and propidium iodide and analysis by flow cytometry. C, Live cells, sorted based on absence of propidium iodide staining (left panel, pentagonal gate) were analyzed for NBD-PZ staining, indicative of lysosomal content. B,C, The dose-response of Cymanquine and CQ on B, percentage of live cells (negative for propidium iodide staining), and C, NBD-PZ median fluorescence intensity of live cells. […]
(§4) Experiments aimed at elucidating the mechanism of action of Cymanquine were conducted. […] Preliminary quantitation of Cymanquine and CQ from isolated lysosomes of cells treated with equimolar quantities of either drug have been encouraging, showing a 60-fold higher accumulation of Cymanquine compared to CQ, as measured by HPLC-MS/MS.

Another data set has as its system LC3-II. Briefly: Western blotting for LC3 isoforms in SB1A cells. The data set is classed as cell-based, human. The following applies: 24 h. The method, then:
as §3, §4
(Immunoblotting shows a protein as a band on a membrane.)

The nature of data set [4]: Cyclic voltammetry, anodic oxidation potentials. The data set is classed as physicochemical. The following applies: dichloromethane/0.05 M [NBu4][B(C6F5)4]. The method, then: Electrochemical studies were carried out. The electrolyte solution used for these studies, namely dichloromethane with 0.05 M [NBu4][B(C6F5)4] as the supporting electrolyte, is known to provide an optimum medium for the electrochemical oxidation of compounds containing the MnCp(CO)3 (Cp=η^5-C5H5) backbone (Laws et al., J. Am. Chem. Soc. 2008, 130, 9859). The potentials given here are referred to the ferrocene/ferrocenium reference couple. The experiments were carried out in a controlled atmosphere which minimizes exposure to oxygen and water. We refer to two types of standard electrochemical techniques that are commonly described in books on electrochemistry: cyclic voltammetry and bulk electrolysis (Bard, A. J.; Faulkner, L. R. Electrochemical Methods, John Wiley & Sons, New York, 2001, second edition) The former is useful for the analytical and gross mechanistic aspects of the electron-transfer properties of a compound, whereas the latter is most often employed for the electro-synthetic function of making isolable quantities of electrochemical oxidation or reduction products.
Anodic oxidation of the three compounds was investigated. […]
Table of potentials (vs ferrocene/ferrocenium (FcH)) measured by cyclic voltammetry for oxidation of compounds 3, 4, and 5 in dichloromethane/0.05 M [NBu4][B(C6F5)4]. […]

The subject of another data set is autophagy. Conditions: low pH media, and bulky tumors in vivo; Pellegrini et al.; cited from earlier work.

Here are results for 2 compounds from patent US10954260B2, “Cymanquine compounds and derivatives thereof and uses thereof” (UNIVERSITY OF VERMONT AND STATE AGRICULTURAL COLLEGE, priority 2015, dated 2021).

“Also recorded” adds a separate entry of the source.

As for cymanquine [Compound 3], in the data set with SB1A cells (highest concentration tested), the NBD-PZ staining entry is “reduced”. In the data set on SB1A cells (low micromolar exposures), the “cytotoxicity (percentage of live cells, propidium iodide)” value is recorded as “significant cytotoxicity” and the “lysosome content (NBD-PZ staining of live cells)” value is listed as “marked accumulation of lysosomes”. In data set [1], the “accumulation in lysosomes compared to CQ” value was found to be 60 fold. For the same compound, in the data set with RWPE-1, the “relative sensitivity of RWPE-1 compared to transformed cell lines” value is reported as “most resistant”. Also, the “cytotoxicity compared to CQ” value in data set [2] (low-pH (PIPES-supplemented) media) is given as “more potent cytotoxicity than CQ”. Besides, the “cytotoxicity compared to CQ” value in data set [2] (normal pH growth conditions, listed as CMQ) is “more potent cytotoxicity than CQ; also recorded: more potent single-agent cytotoxic properties than CQ”. Besides, the “subcellular distribution of EGFP-LC3” value in data set [3] was “punctate EGFP-LC3 emission patterns”. In addition, in the data set with LC3-II, the “cell death at the highest concentrations tested” value was “extensive cell death”. Further, the “accumulation of autophagy marker LC3-II” value with LC3-II (western blot) was “dose-responsive accumulation”. Also, the “Ep(1)” value in data set [4] (first oxidation, anodic peak potential, irreversible) is reported as 0.82 V vs FcH. In addition, the “E1/2(2) or Ep(2)” value in data set [4] (second oxidation, given as Ep (irreversible)) is on record as 1.25 V vs FcH.

In the case of `CCN(CC)CCCC(C)Nc1ccnc2cc(Cl)ccc12` (stereo not shown) [CQ, Chloroquine], the anti-autophagic efficacy result in the data set with autophagy is on record as “poor anti-autophagic efficacy”.
